Measured values: patent US20070197512A1, “Carboxylic Acid Compounds and Use Thereof” (Japan Tobacco Inc., priority 2006, published 2007)
pIC50: −log10 of the molar value.

Biological target: T1, human URAT1 (Homo sapiens, UniProt Q96S37)
T1 construct: Human URAT1 full length cDNA was subcloned to expression vector pcDNA3.1; expressed in transfected cells; host or cells: HEK293 cells (pcDNA3.1, geneticin-selected)
T1 sequence (Q96S37 1-553): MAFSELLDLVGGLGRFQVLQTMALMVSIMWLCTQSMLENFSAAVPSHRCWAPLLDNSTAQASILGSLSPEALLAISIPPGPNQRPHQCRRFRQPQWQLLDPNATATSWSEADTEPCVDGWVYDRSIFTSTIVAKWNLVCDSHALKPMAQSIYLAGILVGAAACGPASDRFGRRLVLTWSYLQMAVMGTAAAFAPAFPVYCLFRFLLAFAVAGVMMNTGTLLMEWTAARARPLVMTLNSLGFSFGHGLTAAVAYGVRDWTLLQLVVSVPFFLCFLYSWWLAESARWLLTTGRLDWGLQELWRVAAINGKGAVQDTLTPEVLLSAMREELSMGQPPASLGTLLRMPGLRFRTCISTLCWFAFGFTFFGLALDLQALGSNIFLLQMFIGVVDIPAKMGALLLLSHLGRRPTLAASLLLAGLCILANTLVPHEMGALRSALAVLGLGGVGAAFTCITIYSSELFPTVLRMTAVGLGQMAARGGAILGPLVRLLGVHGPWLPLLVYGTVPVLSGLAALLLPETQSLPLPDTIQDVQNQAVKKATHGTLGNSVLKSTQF
Experiment: Uric acid transport inhibitory test using human URAT1-expressing cells
Assay type: cell-based
Conditions: human URAT1-expressing HEK293 cells, 14C-uric acid 50 μM, uptake 5 min, room temperature; read-out: hURAT1 IC50
Source text: Experimental Example 1 Uric Acid Transport Inhibitory Test Using Human URAT1-Expressing Cells
Human URAT1 full length cDNA was subcloned to expression vector pcDNA3.1 and human URAT1 gene was transfected into human embryonic kidney derived cell line (HEK293 cells) by liposome method using Lipofectamine2000. Simultaneously, HEK293 cells transfected with expression vector pcDNA3.1 alone (hereinafter mock cells) were also produced. HEK293 cells expressing human URAT1 gene or mock cells were selected with geneticin resistance as an index. The functional expression of human URAT1 gene was confirmed by a method similar to the following method, using ^14C-uric acid transport into the cells as an index.
Human URAT1-expressing HEK293 cells or mock cells were cultured in Dulbecco's modified Eagle's MEM medium (high glucose) containing 10% fetal bovine serum, 0.5 mg/mL geneticin sulfate, 100 units/mL penicillin and 100 μg/mL streptomycin under the conditions of 37° C. and 5% CO2 in an incubator. The cells were plated in a 96 well plate (poly-D-Lysine coated) at 1×10^5 cells/well and the following uric acid transport inhibitory test was performed 24 hr later. This test was performed at room temperature.
After the medium was removed by aspiration from each well, the cells were washed once with Hank's Balanced Salt Solution (HBSS) and preincubated with HBSS (100 μL/well) for 5 min. HBSS was aspirated and an assay buffer (wherein NaCl in the above-mentioned HBSS had been substituted with Na-gluconate) containing various concentrations of the Example compound and a radioactive ligand (14C-uric acid; final concentration 50 μM) was added to each well at 50 μL/well and an uptake reaction was carried out for 5 min. After the reaction, the cells were washed twice with ice-cold HBSS (150 μL/well), and Microscinti™ 20 (PerkinElmer) was added at 50 μL/well. The cells were lysed by stirring and the radioactivity of each well was measured by a liquid scintillation counter (TOP COUNT, Packard).
The uric acid transport rate (%) of the Example compound at each concentration was calculated relative to the radioactivity (difference in radioactivity between human URAT1-expressing HEK293 cells and mock cells without addition of Example compound (DMSO addition)) showing URAT1 specific uric acid transport as 100%, and the concentration (IC50) of the Example compound necessary for inhibiting the uric acid transport rate by 50% was determined. In Table 24-Table 27, “+++” means IC50 value of less than 300 nM, “++” means IC50 value of 300 nM to less than 3000 nM, and “+” means IC50 value of not less than 3000 nM.

Q: `Cc1cc(C)c2c(c1)N(CCC(=O)O)C(=O)C(c1ccccc1)O2` (stereo not drawn) [Example 72, 3-(6,8-dimethyl-3-oxo-2-phenyl-2,3-dihydrobenzo[1,4]oxazin-4-yl)propionic acid] was tested. Which pIC50 did it give?
A: The pIC50 was over 6.52.

Q: With `CC(C)c1cccc2c1O[C@@H](C(C)C)C(=S)N2CC(=O)O` [Example 7, ((S)-2,8-diisopropyl-3-thioxo-2,3-dihydrobenzo[1,4]oxazin-4-yl)acetic acid] as the molecule, how does the pIC50 read?
A: The pIC50 was 5.52 to 6.52.

Q: `CC(C)c1cccc2c1OC(C(C)C)CN2C(=O)CC(=O)O` (stereo not drawn) [Example 31, 3-(2,8-diisopropyl-2,3-dihydrobenzo[1,4]oxazin-4-yl)-3-oxopropionic acid] was tested. Which pIC50 did it give?
A: Its pIC50 is at most 5.52.

Q: How did the pIC50 turn out when `CC(C)c1cccc2c1OCC(=S)N2CC(=O)O` [Example 15, (8-isopropyl-3-thioxo-2,3-dihydrobenzo[1,4]oxazin-4-yl)acetic acid] was run?
A: The pIC50 was at most 5.52.

Q: `CC(C)C1Oc2ccccc2N(CC(=O)O)C1=O` (stereo not drawn) [Example 6, (2-isopropyl-3-oxo-2,3-dihydrobenzo[1,4]oxazin-4-yl)acetic acid] was tested. Which pIC50 did it give?
A: The pIC50 was at most 5.52.

Q: With `O=C(O)CN1C(=O)CSc2ccccc21` [Example 4, (3-oxo-2,3-dihydrobenzo[1,4]thiazin-4-yl)acetic acid] as the molecule, how does the pIC50 read?
A: Its pIC50 is at most 5.52.

Q: How did the pIC50 turn out when `CC(C)C1Oc2c(ccc3ccccc23)N(CCC(=O)O)C1=O` (stereo not drawn) [Example 99, 3-(2-isopropyl-3-oxo-2,3-dihydronaphtho[1,2-b][1,4]oxazin-4-yl)propionic acid] was run?
A: The pIC50 was at most 5.52.

Q: How did the pIC50 turn out when `COC(=O)CN1C(=O)COc2ccccc21` [Example 1, (3-oxo-2,3-dihydrobenzo[1,4]oxazin-4-yl)acetic acid methyl ester] was run?
A: The pIC50 was at most 5.52.

Q: `Cc1cc(C)c2c(c1)N(CCC(=O)O)C(=O)CO2` [Example 82, 3-(6,8-dimethyl-3-oxo-2,3-dihydrobenzo[1,4]oxazin-4-yl)propionic acid] was tested. Which pIC50 did it give?
A: The pIC50 was at most 5.52.

Q: How did the pIC50 turn out when `CCC1Oc2c(C)cc(C)cc2N(CCC(=O)O)C1=O` (stereo not drawn) [Example 87, 3-(2-ethyl-6,8-dimethyl-3-oxo-2,3-dihydrobenzo[1,4]oxazin-4-yl)propionic acid] was run?
A: Its pIC50 is over 6.52.

Q: `CC(C)C1Oc2ccccc2N(CCC(=O)O)C1=O` (stereo not drawn) [Example 32, 3-(2-isopropyl-3-oxo-2,3-dihydrobenzo[1,4]oxazin-4-yl)propionic acid] was tested. Which pIC50 did it give?
A: Its pIC50 is at most 5.52.

Q: With `O=C(O)CN1C(=O)COc2ccccc21` [Example 3, (3-oxo-2,3-dihydrobenzo[1,4]oxazin-4-yl)acetic acid] as the molecule, how does the pIC50 read?
A: The pIC50 was at most 5.52.

Q: How did the pIC50 turn out when `CC(C)C1Oc2c(cc(C(F)(F)F)cc2C(F)(F)F)N(CCC(=O)O)C1=O` (stereo not drawn) [Example 103, 3-[2-isopropyl-3-oxo-6,8-bis(trifluoromethyl)-2,3-dihydrobenzo[1,4]oxazin-4-yl]propionic acid] was run?
A: Its pIC50 is 5.52 to 6.52.

Q: `Cc1ccc2c(c1)OC(c1ccccc1)C(=O)N2CCC(=O)O` (stereo not drawn) [Example 48, 3-(7-methyl-3-oxo-2-phenyl-2,3-dihydrobenzo[1,4]oxazin-4-yl)propionic acid] was tested. Which pIC50 did it give?
A: The pIC50 was at most 5.52.

Q: How did the pIC50 turn out when `CC(C)c1cccc2c1OC(C(C)C)CN2C(=O)CCC(=O)O` (stereo not drawn) [Example 21, 4-(2,8-diisopropyl-2,3-dihydrobenzo[1,4]oxazin-4-yl)-4-oxobutyric acid] was run?
A: The pIC50 was at most 5.52.

Q: With `CC(C)C1Oc2cc([N+](=O)[O-])ccc2N(CCC(=O)O)C1=O` (stereo not drawn) [Example 95, 3-(2-isopropyl-7-nitro-3-oxo-2,3-dihydrobenzo[1,4]oxazin-4-yl)propionic acid] as the molecule, how does the pIC50 read?
A: Its pIC50 is at most 5.52.

Q: How did the pIC50 turn out when `CC(C)C1Oc2c(Cl)cccc2N(CCC(=O)O)C1=O` (stereo not drawn) [Example 100, 3-(8-chloro-2-isopropyl-3-oxo-2,3-dihydrobenzo[1,4]oxazin-4-yl)propionic acid] was run?
A: Its pIC50 is over 6.52.

Q: With `Cc1cccc2c1OC(C(C)C)C(=O)N2CCC(=O)O` (stereo not drawn) [Example 44, 3-(2-isopropyl-8-methyl-3-oxo-2,3-dihydrobenzo[1,4]oxazin-4-yl)propionic acid] as the molecule, how does the pIC50 read?
A: Its pIC50 is over 6.52.

Q: With `O=C(O)/C=C/C(=O)N1CC(c2ccccc2)Oc2ccc(Cl)cc21` (stereo not drawn) [Example 71, (E)-4-(6-chloro-2-phenyl-2,3-dihydrobenzo[1,4]oxazin-4-yl)-4-oxo-2-butenoic acid] as the molecule, how does the pIC50 read?
A: Its pIC50 is at most 5.52.

Q: `O=C(O)CCN1C(=O)COc2ccccc21` [Example 19, 3-(3-oxo-2,3-dihydrobenzo[1,4]oxazin-4-yl)propionic acid] was tested. Which pIC50 did it give?
A: The pIC50 was at most 5.52.

Q: How did the pIC50 turn out when `CC(C)C1Oc2ccc(C(F)(F)F)cc2N(CCC(=O)O)C1=O` (stereo not drawn) [Example 97, 3-(2-isopropyl-3-oxo-6-trifluoromethyl-2,3-dihydrobenzo[1,4]oxazin-4-yl)propionic acid] was run?
A: The pIC50 was 5.52 to 6.52.

Q: How did the pIC50 turn out when `CC(C)C1Oc2ccc(Cl)cc2N(CCC(=O)O)C1=O` (stereo not drawn) [Example 63, 3-(6-chloro-2-isopropyl-3-oxo-2,3-dihydrobenzo[1,4]oxazin-4-yl)propionic acid] was run?
A: The pIC50 was over 6.52.

Q: With `CC(C)C1CN(C(=O)/C=C/C(=O)O)c2cccc(C3CCCCC3)c2O1` (stereo not drawn) [Example 79, (E)-4-(8-cyclohexyl-2-isopropyl-2,3-dihydrobenzo[1,4]oxazin-4-yl)-4-oxo-2-butenoic acid] as the molecule, how does the pIC50 read?
A: The pIC50 was at most 5.52.

Q: How did the pIC50 turn out when `CC(C)C1Oc2ccccc2N(CC(=O)O)C1=S` (stereo not drawn) [Example 13, (2-isopropyl-3-thioxo-2,3-dihydrobenzo[1,4]oxazin-4-yl)acetic acid] was run?
A: The pIC50 was at most 5.52.

Q: With `CC(C)C1Sc2ccccc2N(CC(=O)O)C1=O` (stereo not drawn) [Example 30, (2-isopropyl-3-oxo-2,3-dihydrobenzo[1,4]thiazin-4-yl)acetic acid] as the molecule, how does the pIC50 read?
A: The pIC50 was at most 5.52.

Q: `O=C(O)CCCC(=O)N1CCOc2ccccc21` [Example 24, 5-(2,3-dihydrobenzo[1,4]oxazin-4-yl)-5-oxovaleric acid] was tested. Which pIC50 did it give?
A: The pIC50 was at most 5.52.

Q: How did the pIC50 turn out when `CC1(C)Oc2ccccc2N(CC(=O)O)C1=O` [Example 5, (2,2-dimethyl-3-oxo-2,3-dihydrobenzo[1,4]oxazin-4-yl)acetic acid] was run?
A: The pIC50 was at most 5.52.

Q: `O=C(O)/C=C\C(=O)N1CCOc2ccccc21` [Example 25, (Z)-4-(2,3-dihydrobenzo[1,4]oxazin-4-yl)-4-oxo-2-butenoic acid] was tested. Which pIC50 did it give?
A: The pIC50 was at most 5.52.

Q: `Cc1cc(C)c2c(c1)N(CCC(=O)O)C(=O)C(C(C)C)O2` (stereo not drawn) [Example 61, 3-(2-isopropyl-6,8-dimethyl-3-oxo-2,3-dihydrobenzo[1,4]oxazin-4-yl)propionic acid] was tested. Which pIC50 did it give?
A: Its pIC50 is over 6.52.

Q: With `CC(C)C1Oc2c(Br)cccc2N(CCC(=O)O)C1=O` (stereo not drawn) [Example 51, 3-(8-bromo-2-isopropyl-3-oxo-2,3-dihydrobenzo[1,4]oxazin-4-yl)propionic acid] as the molecule, how does the pIC50 read?
A: Its pIC50 is 5.52 to 6.52.

Q: `O=C(O)CCN1C(=O)C(c2ccccc2)Oc2ccc(Cl)cc21` (stereo not drawn) [Example 77, 3-(6-chloro-3-oxo-2-phenyl-2,3-dihydrobenzo[1,4]oxazin-4-yl)propionic acid] was tested. Which pIC50 did it give?
A: Its pIC50 is at most 5.52.

Q: How did the pIC50 turn out when `O=C(O)CCN1C(=O)C(c2ccccc2)Oc2c(Br)cccc21` (stereo not drawn) [Example 66, 3-(8-bromo-3-oxo-2-phenyl-2,3-dihydrobenzo[1,4]oxazin-4-yl)propionic acid] was run?
A: Its pIC50 is 5.52 to 6.52.

Q: With `CCc1cccc2c1OC(C(C)C)C(=O)N2CCC(=O)O` (stereo not drawn) [Example 53, 3-(8-ethyl-2-isopropyl-3-oxo-2,3-dihydrobenzo[1,4]oxazin-4-yl)propionic acid] as the molecule, how does the pIC50 read?
A: The pIC50 was 5.52 to 6.52.

Q: With `Cc1cc(C)c2c(c1)N(CCC(=O)O)C(=O)C(C)O2` (stereo not drawn) [Example 86, 3-(2,6,8-trimethyl-3-oxo-2,3-dihydrobenzo[1,4]oxazin-4-yl)propionic acid] as the molecule, how does the pIC50 read?
A: Its pIC50 is at most 5.52.

Q: `CC(C)C1Oc2ccc([N+](=O)[O-])cc2N(CCC(=O)O)C1=O` (stereo not drawn) [Example 96, 3-(2-isopropyl-6-nitro-3-oxo-2,3-dihydrobenzo[1,4]oxazin-4-yl)propionic acid] was tested. Which pIC50 did it give?
A: The pIC50 was 5.52 to 6.52.

Q: How did the pIC50 turn out when `O=C(O)/C=C/C(=O)N1CC(c2ccccc2)Oc2cc(Cl)ccc21` (stereo not drawn) [Example 70, (E)-4-(7-chloro-2-phenyl-2,3-dihydrobenzo[1,4]oxazin-4-yl)-4-oxo-2-butenoic acid] was run?
A: The pIC50 was at most 5.52.
